Test results as given in ChEMBL document CHEMBL1201862, “PubChem BioAssay data set” (2004).
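All cell lines were grown in 96-well plates and treated with compound for 48 hours. GI50 marks 50% less growth.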 The source made the active and inactive calls. No stated cut-off is given here; in the data, active = GI50 up to about 1.1 µM and inactive = higher.

Assays:
Test in all cases: NCI tumour cell line growth inhibition, 48 h
[1] = test system: RXF 393
[2] = test system: NCI-H226
[3] = test system: SK-OV-3
[4] = test system: SK-MEL-2
[5] = test system: NCI-H460
[6] = test system: CCRF-CEM
[7] = test system: SF-295
[8] = test system: HOP-18
[9] = test system: SK-MEL-5
[10] = test system: SF-268
[11] = test system: UACC-62
[12] = test system: CAKI-1
[13] = test system: RPMI-8226
[14] = test system: IGROV-1
[15] = test system: SN12C
[16] = test system: NCI-H23

Row | SMILES | GI50 [1] | GI50 [2] | GI50 [3] | GI50 [4] | GI50 [5] | GI50 [6] | GI50 [7] | GI50 [8] | GI50 [9] | GI50 [10] | GI50 [11] | GI50 [12] | GI50 [13] | GI50 [14] | GI50 [15] | GI50 [16]
1 | COc1ccc2c(c1)[n+]([O-])c(/C(C)=N/NC(=O)c1ccccc1O)c(C)[n+]2[O-] | > 100 µM (inactive) | > 100 µM (inactive) | > 100 µM (inactive) | > 100 µM (inactive) | > 100 µM (inactive) | > 100 µM (inactive) | > 100 µM (inactive) | > 100 µM (inactive) | > 100 µM (inactive) | > 100 µM (inactive) | > 100 µM (inactive) | > 100 µM (inactive) | > 100 µM (inactive) | > 100 µM (inactive) | > 100 µM (inactive) | > 100 µM (inactive)
2 | O=C(c1ccccc1)c1nc2ccc(Cl)cc2c2c1Cc1ccccc1-2 | > 100 µM (inactive) | > 100 µM (inactive) |  | > 100 µM (inactive) |  |  | > 100 µM (inactive) | > 100 µM (inactive) | > 100 µM (inactive) | > 100 µM (inactive) | > 100 µM (inactive) | > 100 µM (inactive) | > 100 µM (inactive) | > 100 µM (inactive) | > 100 µM (inactive) | > 100 µM (inactive)
3 | C=C1C(=O)OC2C/C(C)=C/CC/C(C)=C/CCC3(COC(C)=O)OC3CC12 (stereo unspecified) | 2.51 µM (inactive) |  | 13.7 µM (inactive) | 3.33 µM (inactive) | 12.7 µM (inactive) | 2.7 µM (inactive) | 15.3 µM (inactive) | 11.2 µM (inactive) | 14.9 µM (inactive) | 10 µM (inactive) | 11.8 µM (inactive) | 3.31 µM (inactive) | 2.53 µM (inactive) | 16.7 µM (inactive) | 15.6 µM (inactive) | 11.8 µM (inactive)
4 | C#CC(C)(C)Oc1cc(O)c2c(=O)c3ccccc3n(C)c2c1 | > 100 µM (inactive) | > 100 µM (inactive) | > 100 µM (inactive) | > 100 µM (inactive) | 24.5 µM (inactive) | 45.2 µM (inactive) | > 100 µM (inactive) | > 100 µM (inactive) | > 100 µM (inactive) | > 100 µM (inactive) | > 100 µM (inactive) | > 100 µM (inactive) |  | > 100 µM (inactive) | > 100 µM (inactive) | > 100 µM (inactive)
5 | N#Cc1cccc2c1Nc1ccccc1S2 | 32.2 µM (inactive) | 19.1 µM (inactive) | > 100 µM (inactive) | 87.1 µM (inactive) | > 100 µM (inactive) | > 100 µM (inactive) | 35.2 µM (inactive) | 37.3 µM (inactive) | > 100 µM (inactive) | 32.9 µM (inactive) | 60.7 µM (inactive) | > 100 µM (inactive) | > 100 µM (inactive) | 48.9 µM (inactive) | > 100 µM (inactive) | > 100 µM (inactive)
6 | COC(=O)C(=C/c1ccc(OC)cc1)/C(C(=O)O)=C(/C)c1ccccc1 | > 100 µM (inactive) | > 100 µM (inactive) | > 100 µM (inactive) | > 100 µM (inactive) | > 100 µM (inactive) | > 100 µM (inactive) | > 100 µM (inactive) | > 100 µM (inactive) | > 100 µM (inactive) |  | > 100 µM (inactive) | > 100 µM (inactive) | > 100 µM (inactive) | > 100 µM (inactive) | > 100 µM (inactive) | > 100 µM (inactive)
7 | Cc1ccc(S(=O)(=O)NC(=O)C#CCOC2CCCCO2)cc1 (stereo unspecified) | > 100 µM (inactive) | > 100 µM (inactive) |  | 82.8 µM (inactive) | > 100 µM (inactive) | > 100 µM (inactive) | > 100 µM (inactive) | > 100 µM (inactive) | > 100 µM (inactive) |  | > 100 µM (inactive) | > 100 µM (inactive) | > 100 µM (inactive) |  | > 100 µM (inactive) | > 100 µM (inactive)
8 | COc1ccc2nc3cc(Cl)ccc3c(NCCC[N+](C)(C)CCCCCCCCCCCCCCCC[N+](C)(C)CCCNc3c4ccc(Cl)cc4nc4ccc(OC)cc34)c2c1 | 2.84 µM (inactive) | 3.94 µM (inactive) | 4.33 µM (inactive) | 1.79 µM (inactive) | 1.68 µM (inactive) | 1.66 µM (inactive) | 6.03 µM (inactive) | 2.42 µM (inactive) | 2 µM (inactive) | 2.11 µM (inactive) | 2.69 µM (inactive) | 10.6 µM (inactive) | 1.47 µM (inactive) | 2.7 µM (inactive) | 3.22 µM (inactive) | 2 µM (inactive)
9 | COc1cc(Nc2cnc3cc(C(F)(F)F)ccc3n2)cc(OC)c1OC | > 100 µM (inactive) | > 100 µM (inactive) | > 100 µM (inactive) | > 100 µM (inactive) | > 100 µM (inactive) | > 100 µM (inactive) | > 100 µM (inactive) | > 100 µM (inactive) |  | > 100 µM (inactive) | > 100 µM (inactive) |  | > 100 µM (inactive) |  | > 100 µM (inactive) | > 100 µM (inactive)
10 | COc1ccccc1NC(=O)NS(=O)(=O)c1ccccc1 | 28.9 µM (inactive) | 87.1 µM (inactive) |  | > 100 µM (inactive) | > 100 µM (inactive) |  | > 100 µM (inactive) | 48.2 µM (inactive) | > 100 µM (inactive) | > 100 µM (inactive) |  | 91.6 µM (inactive) |  |  | > 100 µM (inactive) | > 100 µM (inactive)
11 | CC1=C(C(=O)NCc2ccccc2)C(/C=C/c2ccccc2)C(C(=O)NCc2ccccc2)=C(C)N1 | > 100 µM (inactive) | > 100 µM (inactive) |  | > 100 µM (inactive) | > 100 µM (inactive) | > 100 µM (inactive) | > 100 µM (inactive) | > 100 µM (inactive) | > 100 µM (inactive) | > 100 µM (inactive) | > 100 µM (inactive) | > 100 µM (inactive) | > 100 µM (inactive) | > 100 µM (inactive) | > 100 µM (inactive) | > 100 µM (inactive)
12 | COc1c(I)c(OC)c2c(c1I)O[C@@H]1OCC[C@H]21 | 37.4 µM (inactive) | 23.6 µM (inactive) | 31.8 µM (inactive) | 19.9 µM (inactive) | 20.2 µM (inactive) | 27.5 µM (inactive) | 38.2 µM (inactive) | 24.3 µM (inactive) | 13.7 µM (inactive) |  | 32.5 µM (inactive) | 0.098 µM (active) | 19.7 µM (inactive) | 37.6 µM (inactive) | 31.3 µM (inactive) | 30.6 µM (inactive)
13 | O=[N+]([O-])c1ccc(N=P(c2ccccc2)(c2ccccc2)c2ccccc2)n2nnnc12 | 44 µM (inactive) |  | 46.1 µM (inactive) | 33.7 µM (inactive) | 44.6 µM (inactive) | 68.9 µM (inactive) | 29 µM (inactive) | > 100 µM (inactive) | 67 µM (inactive) | 36.1 µM (inactive) | 37.3 µM (inactive) | 45.1 µM (inactive) | 35.7 µM (inactive) | > 100 µM (inactive) | 82.4 µM (inactive) | > 100 µM (inactive)
14 | Cc1cccc(C)c1NC(=O)C(=O)Nn1c(NN)nc2ccccc2c1=O | > 100 µM (inactive) | > 100 µM (inactive) | > 100 µM (inactive) | > 100 µM (inactive) | > 100 µM (inactive) | > 100 µM (inactive) | > 100 µM (inactive) | > 100 µM (inactive) | > 100 µM (inactive) | > 100 µM (inactive) | > 100 µM (inactive) | > 100 µM (inactive) | > 100 µM (inactive) | > 100 µM (inactive) | > 100 µM (inactive) | > 100 µM (inactive)
15 | CCCCOC(=O)NC(=O)c1cn(CCCOC(=O)CCCCCCCCC(=O)OCCCn2cc(C(=O)NC(=O)OCCCC)c(=O)[nH]c2=O)c(=O)[nH]c1=O | 83 µM (inactive) | > 100 µM (inactive) | > 100 µM (inactive) | > 100 µM (inactive) | > 100 µM (inactive) | > 100 µM (inactive) | > 100 µM (inactive) | 24.9 µM (inactive) | > 100 µM (inactive) | > 100 µM (inactive) | > 100 µM (inactive) |  | > 100 µM (inactive) | > 100 µM (inactive) | > 100 µM (inactive) | > 100 µM (inactive)
16 | Cc1ccccc1-n1c(CCl)nc2ccc(Br)cc2c1=O | 10.2 µM (inactive) | 8.87 µM (inactive) | 29.5 µM (inactive) | 14.6 µM (inactive) | 13.5 µM (inactive) | 0.278 µM (active) | 11 µM (inactive) | 22.9 µM (inactive) | 8.17 µM (inactive) | 3.21 µM (inactive) | 4.4 µM (inactive) | 1.77 µM (inactive) | 8.36 µM (inactive) | 14.3 µM (inactive) | 0.434 µM (active) | 9.91 µM (inactive)
17 | O=C1C2C3C=C4c5ccccc5N(c5ccccc5)C4([C@@H]2C(=O)N1c1ccc(F)cc1)[C@H]1C(=O)N(c2ccc(F)cc2)C(=O)[C@@H]31 (stereo partly specified) | 81.3 µM (inactive) | > 100 µM (inactive) |  | > 100 µM (inactive) |  | > 100 µM (inactive) | > 100 µM (inactive) | > 100 µM (inactive) |  | 37.2 µM (inactive) |  |  | > 100 µM (inactive) |  | 82 µM (inactive) | > 100 µM (inactive)
18 | C=C1CC2OC(=O)C(=C)C2C(O)C2C(=C)CCC12 (stereo unspecified) | 4.05 µM (inactive) | 20.4 µM (inactive) | 12.4 µM (inactive) | 15.7 µM (inactive) | 14.7 µM (inactive) | 2.24 µM (inactive) | 10.9 µM (inactive) | 15.9 µM (inactive) | 12.2 µM (inactive) | 16.7 µM (inactive) | 3.48 µM (inactive) | 5.25 µM (inactive) | 2.81 µM (inactive) | 17.7 µM (inactive) | 5.73 µM (inactive) | 12.6 µM (inactive)
